ChEMBL document CHEMBL4739717, “Methods of treating cartilage disorders through inhibition of clk and dyrk” (2020)

Columns and labels:
[1] = molecular target: Dual specificity tyrosine-phosphorylation-regulated kinase 1A (Homo sapiens, UniProt Q13627); assay: Inhibition of recombinant DYRK1A (unknown origin) using Ser/Thr 18 peptide as substrate incubated for 1 hr in presence of ATP by FRET assay
[2] = Effect on Wnt signaling pathway in human SW480 cells harbouring TCF/LEF luciferase reporter gene and SP5-Luc reporter gene incubated for 36 to 48 hrs by luminescence assay; format: cell-based
[3] = Induction of chondrogenesis in human MSC assessed as incubated for 6 days by rhodamine B and Nile red staining based imaging analysis; format: functional; details: bmmsc
[4] = Induction of chondrogenesis in human MSC assessed as maximum activity at 100 nM incubated for 6 days by rhodamine B and Nile red staining based imaging analysis relative to control; format: functional; details: BMMSC, 144 h, time 6 day

## Nc1cncc(-c2ccc3[nH]nc(-c4nc5c(-c6ccccc6F)nccc5[nH]4)c3c2)c1
[1]
  EC50: 6 nM
[2]
  EC50: 8.8 nM
[3]
  EC50: 100 nM
[4]
  Emax at 0.1 µM: 61.9%

## Fc1ccccc1-c1cncc2[nH]c(-c3n[nH]c4ncc(-c5cn[nH]c5)cc34)cc12
[1]
  EC50: 20 nM
[2]
  EC50: 375 nM
[3]
  EC50: 100 nM
[4]
  Emax at 0.1 µM: 51.1%

## c1cncc(-c2ccc3[nH]nc(-c4nc5c(-c6ccoc6)cncc5[nH]4)c3c2)c1
[1]
  EC50: 3 nM
[2]
  EC50: 45.4 nM
[3]
  EC50: 100 nM
[4]
  Emax at 0.1 µM: 149%

## CCCCC(=O)Nc1cncc(-c2ccc3[nH]nc(-c4cc5c(-c6ccoc6)cncc5[nH]4)c3c2)c1
[1]
  EC50: 13 nM
[2]
  EC50: 915 nM
[3]
  EC50: 30 nM
[4]
  Emax at 0.1 µM: 122%

## CC(C)CC(=O)Nc1cncc(-c2ccc3[nH]nc(-c4nc5c(-c6cc(F)cc(CNS(C)(=O)=O)c6)cncc5[nH]4)c3c2)c1
[1]
  EC50: 16 nM
[2]
  EC50: 5 nM
[3]
  EC50: 100 nM
[4]
  Emax at 0.1 µM: 118%

## Cc1cn(-c2ccnc3[nH]c(-c4n[nH]c5ccc(-c6cncc(NC(=O)C(C)(C)C)c6)nc45)nc23)cn1
[1]
  EC50: 22 nM
[2]
  EC50: > 10000 nM
[3]
  EC50: 10 nM
[4]
  Emax at 0.1 µM: 70.2%

## Nc1cncc(-c2ccc3[nH]nc(-c4cc5c(-c6ccncc6)nccc5[nH]4)c3c2)c1
[1]
  EC50: 11 nM
[2]
  EC50: 658 nM
[3]
  EC50: 100 nM
[4]
  Emax at 0.1 µM: 76.8%

## CC(C)(C)C(=O)Nc1cncc(-c2ccc3[nH]nc(-c4nc5c(N6CCCCC6)cncc5[nH]4)c3c2)c1
[1]
  EC50: 8 nM
[2]
  EC50: 41 nM
[3]
  EC50: 100 nM
[4]
  Emax at 0.1 µM: 114%

## Cn1cc(-c2ccc3[nH]nc(-c4cc5c(-c6cccnc6)cncc5[nH]4)c3c2)cn1
[1]
  EC50: 53 nM
[2]
  EC50: 250 nM
[3]
  EC50: 30 nM
[4]
  Emax at 0.1 µM: 65.2%

## Cc1ncc(-c2cnc3[nH]nc(-c4nc5c(-c6cccc(F)c6)nccc5[nH]4)c3c2)n1C
[1]
  EC50: 5 nM
[2]
  EC50: 12.5 nM
[3]
  EC50: 100 nM
[4]
  Emax at 0.1 µM: 152%

## CCC(=O)Nc1cncc(-c2ccc3[nH]nc(-c4cc5c(-c6cccc(F)c6)ccnc5[nH]4)c3c2)c1
[1]
  EC50: 33 nM
[2]
  EC50: 13.2 nM
[3]
  EC50: 100 nM
[4]
  Emax at 0.1 µM: 167%

## FC1(F)CCN(Cc2cncc(-c3cnc4[nH]nc(-c5cc6c(-c7ccoc7)cccc6[nH]5)c4c3)c2)C1
[1]
  EC50: 11 nM
[2]
  EC50: 1000 nM
[3]
  EC50: 30 nM
[4]
  Emax at 0.1 µM: 72.1%

## CCC(=O)Nc1cncc(-c2cnc3[nH]nc(-c4nc5c(-c6ccsc6)cccc5[nH]4)c3c2)c1
[1]
  EC50: 76 nM
[2]
  EC50: 10 nM
[3]
  EC50: 100 nM
[4]
  Emax at 0.1 µM: 167%

## CC(C)Nc1cncc(-c2ccc3[nH]nc(-c4nc5c(-c6cccnc6)ccnc5[nH]4)c3n2)c1
[1]
  EC50: 14 nM
[2]
  EC50: 1750 nM
[3]
  EC50: 10 nM
[4]
  Emax at 0.1 µM: 114%

## Nc1cncc(-c2ccc3[nH]nc(-c4nc5c(-c6ccccc6F)ccnc5[nH]4)c3n2)c1
[1]
  EC50: 15 nM
[2]
  EC50: > 10000 nM
[3]
  EC50: 10 nM
[4]
  Emax at 0.1 µM: 127%

## O=C(Cc1ccccc1)Nc1cncc(-c2ccc3[nH]nc(-c4nc5c(-c6cccc(F)c6)cncc5[nH]4)c3c2)c1
[1]
  EC50: 24 nM
[2]
  EC50: 23 nM
[3]
  EC50: 100 nM
[4]
  Emax at 0.1 µM: 124%

## Cn1cc(-c2cc3c(-c4nc5c(-c6cccc(F)c6)cncc5[nH]4)n[nH]c3cn2)cn1
[1]
  EC50: 15 nM
[2]
  EC50: 70 nM
[3]
  EC50: 100 nM
[4]
  Emax at 0.1 µM: 71%

## CN1CCN(c2cncc3[nH]c(-c4n[nH]c5ccc(-c6cncc(NC(=O)CC7CCNCC7)c6)cc45)cc23)CC1
[1]
  EC50: 15 nM
[2]
  EC50: > 10000 nM
[3]
  EC50: 100 nM
[4]
  Emax at 0.1 µM: 289%

## CCNCc1cncc(-c2ccc3[nH]nc(-c4cc5c(-c6cc(F)cc(CNS(C)(=O)=O)c6)cncc5[nH]4)c3c2)c1
[1]
  EC50: 21 nM
[2]
  EC50: > 10000 nM
[3]
  EC50: 100 nM
[4]
  Emax at 0.1 µM: 58%

## Cc1ccncc1-c1ccc2[nH]nc(-c3cc4c(-c5cccnc5)cncc4[nH]3)c2n1
[1]
  EC50: 45 nM
[2]
  EC50: > 10000 nM
[3]
  EC50: 10 nM
[4]
  Emax at 0.1 µM: 149%

## c1cncc(-c2cc3c(-c4cc5c(-c6cccnc6)cncc5[nH]4)n[nH]c3cn2)c1
[1]
  EC50: 17 nM
[2]
  EC50: 1340 nM
[3]
  EC50: 100 nM
[4]
  Emax at 0.1 µM: 76.4%

## CN1CCN(c2ccnc3[nH]c(-c4n[nH]c5ccc(-c6cncc(N)c6)cc45)cc23)CC1
[1]
  EC50: 7 nM
[2]
  EC50: 1170 nM
[3]
  EC50: 100 nM
[4]
  Emax at 0.1 µM: 50.2%

## CC(C)Nc1cncc(-c2ccc3[nH]nc(-c4nc5c(-c6ccoc6)ccnc5[nH]4)c3n2)c1
[1]
  EC50: 26 nM
[2]
  EC50: 298 nM
[3]
  EC50: 100 nM
[4]
  Emax at 0.1 µM: 64.2%

## CCCCC(=O)Nc1cncc(-c2cnc3[nH]nc(-c4cc5c(-c6ccncc6)cncc5[nH]4)c3c2)c1
[1]
  EC50: 17 nM
[2]
  EC50: > 10000 nM
[3]
  EC50: 10 nM
[4]
  Emax at 0.1 µM: 70.4%

## Cc1cn(-c2nccc3[nH]c(-c4n[nH]c5ccc(-c6cncc(NC(=O)CC(C)C)c6)nc45)nc23)cn1
[1]
  EC50: 28 nM
[2]
  EC50: 2900 nM
[3]
  EC50: 30 nM
[4]
  Emax at 0.1 µM: 69.3%
